Toxic doses and inconclusive results are not listed. Cut-off read from the data, not from the text of the source: active = T/C of 150% or more; inactive = T/C below 125%.
Test system: L1210 leukemia ip in BDF1 mice, survival T/C
Assay: NCI In Vivo Anticancer Drug Screen. Data for tumor model L1210 Leukemia (intraperitoneal) in B6D2F1 (BDF1) mice
Conditions: endpoint: mean survival time, higher = longer survival
In short: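 Transplantable tumor model; survival measured in treated vs vehicle control mice. Value = treated/control.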

[1] = dose: 100.0 mg/kg/injection, schedule: Q04DX003 (ip), vehicle: Klucel (hydroxypropylcellulose) (HPC)
[2] = dose: 200.0 mg/kg/injection, schedule: Q04DX003 (ip), vehicle: Klucel (hydroxypropylcellulose) (HPC)
[3] = dose: 400.0 mg/kg/injection, schedule: Q04DX003 (ip), vehicle: Klucel (hydroxypropylcellulose) (HPC)
[4] = dose: 100.0 mg/kg/injection, schedule: Q01DX001 (ip), vehicle: Klucel (hydroxypropylcellulose) (HPC)
[5] = dose: 200.0 mg/kg/injection, schedule: Q01DX001 (ip), vehicle: Klucel (hydroxypropylcellulose) (HPC)
[6] = dose: 400.0 mg/kg/injection, schedule: Q01DX001 (ip), vehicle: Klucel (hydroxypropylcellulose) (HPC)
[7] = dose: 100.0 mg/kg/injection, schedule: Q01DX001 (ip), vehicle: saline
[8] = dose: 200.0 mg/kg/injection, schedule: Q01DX001 (ip), vehicle: saline
[9] = dose: 400.0 mg/kg/injection, schedule: Q01DX001 (ip), vehicle: saline
[10] = dose: 100.0 mg/kg/injection, schedule: Q04DX002 (ip), vehicle: saline
[11] = dose: 200.0 mg/kg/injection, schedule: Q04DX002 (ip), vehicle: saline
[12] = dose: 50.0 mg/kg/injection, schedule: Q01DX009 (ip), vehicle: saline
[13] = dose: 100.0 mg/kg/injection, schedule: Q01DX009 (ip), vehicle: saline
[14] = dose: 100.0 mg/kg/injection, schedule: Q01DX009 (ip), vehicle: Klucel (hydroxypropylcellulose) (HPC)
[15] = dose: 200.0 mg/kg/injection, schedule: Q01DX009 (ip), vehicle: Klucel (hydroxypropylcellulose) (HPC)

Measured: T/C

CCOc1ncc([N+](=O)[O-])cc1[N+](=O)[O-]
inactive: [1] 88 % of control | [2] 92 % of control | [3] 90 % of control

N#CC1C(=O)N=C(c2ccccc2)CC1c1ccccc1 (configuration not stated)
inactive: dose: 100.0 mg/kg/injection, schedule: Q01DX001 (ip), vehicle: saline with Tween-80 86 % of control | dose: 200.0 mg/kg/injection, schedule: Q01DX001 (ip), vehicle: saline with Tween-80 96 % of control | dose: 400.0 mg/kg/injection, schedule: Q01DX001 (ip), vehicle: saline with Tween-80 104 % of control

CC1CC(C)(C)NC(=O)O1 (configuration not stated)
inactive: dose: 25.0 mg/kg/injection, schedule: Q01DX009 (ip), vehicle: other 93 % of control | dose: 25.0 mg/kg/injection, schedule: Q04DX003 (ip), vehicle: other 90 % of control | dose: 50.0 mg/kg/injection, schedule: Q01DX009 (ip), vehicle: other 92 % of control | dose: 50.0 mg/kg/injection, schedule: Q04DX003 (ip), vehicle: other 89 % of control | dose: 100.0 mg/kg/injection, schedule: Q01DX001 (ip), vehicle: other 103 % of control | dose: 100.0 mg/kg/injection, schedule: Q01DX009 (ip), vehicle: other 92 % of control | dose: 100.0 mg/kg/injection, schedule: Q04DX003 (ip), vehicle: other 90 % of control

CC(=O)OCC(OC(C)=O)C1OCOC2COCOC21 (configuration not stated)
inactive: [4] 108 % of control | [5] 89 % of control | [6] 101 % of control

NNc1ccccc1Cl
inactive: dose: 50.0 mg/kg/injection, schedule: Q01DX001 (ip), vehicle: carboxymethylcellulose (CMC) 108 % of control | dose: 75.0 mg/kg/injection, schedule: Q01DX001 (ip), vehicle: other 102 % of control | dose: 100.0 mg/kg/injection, schedule: Q01DX001 (ip), vehicle: carboxymethylcellulose (CMC) 97 % of control | dose: 150.0 mg/kg/injection, schedule: Q01DX001 (ip), vehicle: other 93 % of control | dose: 200.0 mg/kg/injection, schedule: Q01DX001 (ip), vehicle: carboxymethylcellulose (CMC) 108 % of control

Cc1ccc(C2(C)CCC(=O)c3cc(C)c(C)cc32)cc1C (configuration not stated)
inactive: dose: 50.0 mg/kg/injection, schedule: Q01DX001 (ip), vehicle: saline 97 % of control | [7] 100 % of control | [8] 94 % of control | [9] 103 % of control

CC(=O)CC(C)(C)S(=O)(=O)O
inactive: [7] 100 % of control | [8] 100 % of control | [9] 100 % of control

COC1OC2COc3ccccc3OC2C2C1N2C(N)=O (configuration not stated)
inactive: dose: 100.0 mg/kg/injection, schedule: Q04DX002 (ip), vehicle: Klucel (hydroxypropylcellulose) (HPC) 104 % of control | dose: 200.0 mg/kg/injection, schedule: Q04DX002 (ip), vehicle: Klucel (hydroxypropylcellulose) (HPC) 96 % of control | dose: 400.0 mg/kg/injection, schedule: Q04DX002 (ip), vehicle: Klucel (hydroxypropylcellulose) (HPC) 100 % of control

COC(/C=C/c1ccccc1)=N\S(=O)(=O)c1ccccc1
inactive: dose: 50.0 mg/kg/injection, schedule: Q01DX001 (ip), vehicle: Klucel (hydroxypropylcellulose) (HPC) 98 % of control | [4] 100 % of control | [5] 107 % of control

CC(C)CCCC(C)C1CCC2C3CC=C4CC(OC(=O)c5cc([N+](=O)[O-])c(N6CC6)c([N+](=O)[O-])c5)CCC4(C)C3CCC12C (configuration not stated)
inactive: dose: 50.0 mg/kg/injection, schedule: Q01DX001 (sc), vehicle: steriod suspending solution 110 % of control | dose: 100.0 mg/kg/injection, schedule: Q01DX001 (sc), vehicle: steriod suspending solution 96 % of control | dose: 200.0 mg/kg/injection, schedule: Q01DX001 (sc), vehicle: steriod suspending solution 102 % of control | dose: 400.0 mg/kg/injection, schedule: Q01DX001 (sc), vehicle: steriod suspending solution 96 % of control

O=C([O-])CO.[Co+3].[NH2-].[NH2-].[NH2-].[NH2-].[NH2-].[O-][Cl+3]([O-])([O-])O
inactive: [10] 103 % of control | [11] 100 % of control | dose: 400.0 mg/kg/injection, schedule: Q04DX002 (ip), vehicle: saline 103 % of control

CCC(CO)Nc1nncc2ccccc12 (configuration not stated)
inactive: [7] 98 % of control | [8] 96 % of control | [9] 104 % of control

N=C1C(=O)c2ccccc2-c2ccccc21
inactive: [4] 97 % of control | [5] 98 % of control | [6] 98 % of control

C=C1C(=O)OC2CCCCCCC12 (configuration not stated)
inactive: [12] 95 % of control | [13] 95 % of control

CC(C)COC(=O)c1ccccc1O
inactive: [14] 98 % of control | [1] 96 % of control | [15] 99 % of control | [2] 96 % of control | dose: 400.0 mg/kg/injection, schedule: Q01DX009 (ip), vehicle: Klucel (hydroxypropylcellulose) (HPC) 87 % of control | [3] 89 % of control

CCCCCCCCCC(N)=O
inactive: dose: 50.0 mg/kg/injection, schedule: Q01DX009 (ip), vehicle: Klucel (hydroxypropylcellulose) (HPC) 97 % of control | [4] 110 % of control | [14] 90 % of control | [5] 100 % of control | [6] 93 % of control

COc1ccc(COC2C(CO)OC(n3cnc4c(N)ncnc43)C2O)cc1 (configuration not stated)
inactive: dose: 100.0 mg/kg/injection, schedule: Q01DX005 (ip), vehicle: saline 97 % of control | dose: 200.0 mg/kg/injection, schedule: Q01DX005 (ip), vehicle: saline 100 % of control

O=C(/C=C/C=C/C=C/C=C/C(=O)N1CCCCC1)N1CCCCC1
inactive: [7] 97 % of control | [8] 92 % of control | [9] 89 % of control

O=C(O)c1ccccc1Cc1cccc2c(Cl)cccc12
inactive: [4] 97 % of control | [5] 98 % of control | [6] 101 % of control

CCCCCCCCCCCCCCCCCC(=O)OCCOCCOCCOCCOCCOCCOCCOCCOCCO
inactive: [7] 100 % of control | [8] 94 % of control | [9] 97 % of control

O=C(O)c1ccccc1SCc1cc(=O)[nH]c(=O)[nH]1
inactive: dose: 100.0 mg/kg/injection, schedule: Q04DX003 (ip), vehicle: saline with Tween-80 102 % of control | dose: 200.0 mg/kg/injection, schedule: Q04DX003 (ip), vehicle: saline with Tween-80 102 % of control | dose: 400.0 mg/kg/injection, schedule: Q04DX003 (ip), vehicle: saline with Tween-80 98 % of control

Cc1cc2c(cc1C)C1(c3ccc(Cl)cc3)OC2(c2ccc(Cl)cc2)C2C(=O)OC(=O)C21 (configuration not stated)
inactive: [4] 94 % of control | [5] 92 % of control | [6] 97 % of control

Cc1ccc(/C=N\N=C(\N)N/N=C/c2ccc(C)cc2)cc1
inactive: dose: 15.0 mg/kg/injection, schedule: Q01DX Z (ip), vehicle: carboxymethylcellulose (CMC) 95 % of control | dose: 30.0 mg/kg/injection, schedule: Q01DX Z (ip), vehicle: carboxymethylcellulose (CMC) 93 % of control | dose: 60.0 mg/kg/injection, schedule: Q01DX Z (ip), vehicle: carboxymethylcellulose (CMC) 87 % of control | dose: 120.0 mg/kg/injection, schedule: Q01DX Z (ip), vehicle: carboxymethylcellulose (CMC) 96 % of control | dose: 120.0 mg/kg/injection, schedule: Q01DX Z (oral), vehicle: carboxymethylcellulose (CMC) 101 % of control | dose: 240.0 mg/kg/injection, schedule: Q01DX Z (oral), vehicle: carboxymethylcellulose (CMC) 101 % of control | dose: 480.0 mg/kg/injection, schedule: Q01DX Z (oral), vehicle: carboxymethylcellulose (CMC) 96 % of control | dose: 960.0 mg/kg/injection, schedule: Q01DX Z (oral), vehicle: carboxymethylcellulose (CMC) 101 % of control

O=C(c1ccccc1)c1cc(Cl)ccc1N1C(=O)C=CC1=O
inactive: dose: 25.0 mg/kg/injection, schedule: Q04DX002 (ip), vehicle: saline with Tween-80 90 % of control

Cc1ncc(CO)c2c1OC1=CCCCC1=C2
inactive: dose: 100.0 mg/kg/injection, schedule: Q04DX002 (ip), vehicle: saline with Tween-80 95 % of control | dose: 200.0 mg/kg/injection, schedule: Q04DX002 (ip), vehicle: saline with Tween-80 92 % of control

CCSCN(C)C
inactive: [12] 102 % of control | dose: 50.0 mg/kg/injection, schedule: Q04DX003 (ip), vehicle: saline 97 % of control | [7] 113 % of control | [13] 101 % of control | dose: 100.0 mg/kg/injection, schedule: Q04DX003 (ip), vehicle: saline 103 % of control | [8] 97 % of control | dose: 200.0 mg/kg/injection, schedule: Q04DX003 (ip), vehicle: saline 105 % of control

Oc1c(CNCCCN2CCCC2)cc(Cl)c2cccnc12
inactive: [10] 97 % of control | [11] 97 % of control

CN(C)c1ncc(C(N)=O)cn1
inactive: [14] 97 % of control | [1] 100 % of control | [15] 108 % of control | [2] 96 % of control | [3] 110 % of control

Reference: PubChem BioAssay AID248 (DTP/NCI, 2004)
